Reference: patent US20200239530A1, “COMPOUNDS AND METHODS OF MODULATING PROTEIN DEGRADATION” (Vividion Therapeutics, Inc., priority 2017, published 2020)
Where two headings read alike, the source gives them in different places.

Key:
Test in all cases: Cysteine liganding, probe competition
Type in all cases: binding
UniProt Q9BZY9 = target: T1, UniProt Q9BZY9 (Homo sapiens, UniProt Q9BZY9)
T1 construct: 200 μL of lysate containing 5 mg/ml proteome was treated with 2 μL of 100× compound stock; endogenous in cells
T1 sequence (Q9BZY9 1-425): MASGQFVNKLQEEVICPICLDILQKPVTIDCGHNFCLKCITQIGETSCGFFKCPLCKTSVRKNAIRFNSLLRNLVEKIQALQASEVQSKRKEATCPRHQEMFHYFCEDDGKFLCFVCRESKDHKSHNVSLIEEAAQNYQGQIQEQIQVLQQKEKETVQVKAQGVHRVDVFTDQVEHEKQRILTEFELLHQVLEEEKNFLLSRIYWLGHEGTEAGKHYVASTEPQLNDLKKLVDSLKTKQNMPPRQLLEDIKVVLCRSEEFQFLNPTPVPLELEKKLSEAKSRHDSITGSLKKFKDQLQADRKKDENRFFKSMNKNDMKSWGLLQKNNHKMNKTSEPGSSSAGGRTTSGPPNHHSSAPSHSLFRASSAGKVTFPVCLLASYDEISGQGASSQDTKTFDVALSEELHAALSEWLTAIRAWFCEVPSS
From the text: (§1) The following 96-well sample prep protocol was used for sample preparation.

UniProt Q68DV7 = target: T2, UniProt Q68DV7 (Homo sapiens, UniProt Q68DV7)
T2 construct: 200 μL of lysate containing 5 mg/ml proteome was treated with 2 μL of 100× compound stock; endogenous in cells
T2 sequence (Q68DV7 24-783): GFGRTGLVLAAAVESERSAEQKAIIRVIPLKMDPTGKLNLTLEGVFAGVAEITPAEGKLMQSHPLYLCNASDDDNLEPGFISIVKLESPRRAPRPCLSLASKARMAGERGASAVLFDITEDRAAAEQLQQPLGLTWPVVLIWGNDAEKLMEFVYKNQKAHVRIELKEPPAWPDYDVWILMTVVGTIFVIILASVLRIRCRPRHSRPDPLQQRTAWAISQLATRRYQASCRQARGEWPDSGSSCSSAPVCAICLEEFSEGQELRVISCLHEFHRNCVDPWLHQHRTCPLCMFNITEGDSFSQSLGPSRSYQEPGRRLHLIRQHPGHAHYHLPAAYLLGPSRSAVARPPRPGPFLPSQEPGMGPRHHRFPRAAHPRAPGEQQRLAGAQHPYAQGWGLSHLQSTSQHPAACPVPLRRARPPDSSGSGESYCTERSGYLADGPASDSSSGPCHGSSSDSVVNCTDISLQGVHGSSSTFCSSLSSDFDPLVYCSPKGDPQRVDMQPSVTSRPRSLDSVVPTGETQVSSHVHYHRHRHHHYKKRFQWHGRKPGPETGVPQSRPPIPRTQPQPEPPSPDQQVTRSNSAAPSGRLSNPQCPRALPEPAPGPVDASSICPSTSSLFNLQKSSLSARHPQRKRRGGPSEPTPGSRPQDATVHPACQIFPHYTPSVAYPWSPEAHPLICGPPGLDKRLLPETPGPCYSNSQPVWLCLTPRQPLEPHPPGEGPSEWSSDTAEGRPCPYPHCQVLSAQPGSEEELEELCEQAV
From the text: as §1

UniProt Q6ZN04 = target: T3, UniProt Q6ZN04 (Homo sapiens, UniProt Q6ZN04); settings: for inhibition at 500 µM: read-out: percent inhibition
T3 construct: Cells were resuspended in cold PBS on ice and sonicated with a probe sonicator to achieve lysis; endogenous in cells
T3 sequence (Q6ZN04 1-569): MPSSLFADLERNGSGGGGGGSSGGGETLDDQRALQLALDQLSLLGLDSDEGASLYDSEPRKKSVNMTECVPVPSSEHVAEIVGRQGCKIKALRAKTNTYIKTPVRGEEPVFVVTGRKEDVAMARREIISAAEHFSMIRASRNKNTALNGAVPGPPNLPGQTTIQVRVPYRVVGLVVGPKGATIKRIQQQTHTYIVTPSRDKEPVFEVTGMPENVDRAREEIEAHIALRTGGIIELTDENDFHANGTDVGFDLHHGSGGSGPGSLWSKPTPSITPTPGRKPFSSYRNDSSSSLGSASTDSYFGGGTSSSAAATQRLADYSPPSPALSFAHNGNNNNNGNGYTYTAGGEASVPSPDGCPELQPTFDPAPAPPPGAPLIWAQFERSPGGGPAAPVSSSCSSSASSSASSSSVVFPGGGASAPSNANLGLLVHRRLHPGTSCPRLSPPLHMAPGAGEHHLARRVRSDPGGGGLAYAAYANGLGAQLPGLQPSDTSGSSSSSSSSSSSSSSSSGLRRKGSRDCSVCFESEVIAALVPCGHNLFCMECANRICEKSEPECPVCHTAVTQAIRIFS
From the text: as §1

UniProt Q8TE49 = target: T4, UniProt Q8TE49 (Homo sapiens, UniProt Q8TE49)
T4 construct: Cells were resuspended in cold PBS on ice and sonicated with a probe sonicator to achieve lysis; endogenous in cells
T4 sequence (Q8TE49 1-926): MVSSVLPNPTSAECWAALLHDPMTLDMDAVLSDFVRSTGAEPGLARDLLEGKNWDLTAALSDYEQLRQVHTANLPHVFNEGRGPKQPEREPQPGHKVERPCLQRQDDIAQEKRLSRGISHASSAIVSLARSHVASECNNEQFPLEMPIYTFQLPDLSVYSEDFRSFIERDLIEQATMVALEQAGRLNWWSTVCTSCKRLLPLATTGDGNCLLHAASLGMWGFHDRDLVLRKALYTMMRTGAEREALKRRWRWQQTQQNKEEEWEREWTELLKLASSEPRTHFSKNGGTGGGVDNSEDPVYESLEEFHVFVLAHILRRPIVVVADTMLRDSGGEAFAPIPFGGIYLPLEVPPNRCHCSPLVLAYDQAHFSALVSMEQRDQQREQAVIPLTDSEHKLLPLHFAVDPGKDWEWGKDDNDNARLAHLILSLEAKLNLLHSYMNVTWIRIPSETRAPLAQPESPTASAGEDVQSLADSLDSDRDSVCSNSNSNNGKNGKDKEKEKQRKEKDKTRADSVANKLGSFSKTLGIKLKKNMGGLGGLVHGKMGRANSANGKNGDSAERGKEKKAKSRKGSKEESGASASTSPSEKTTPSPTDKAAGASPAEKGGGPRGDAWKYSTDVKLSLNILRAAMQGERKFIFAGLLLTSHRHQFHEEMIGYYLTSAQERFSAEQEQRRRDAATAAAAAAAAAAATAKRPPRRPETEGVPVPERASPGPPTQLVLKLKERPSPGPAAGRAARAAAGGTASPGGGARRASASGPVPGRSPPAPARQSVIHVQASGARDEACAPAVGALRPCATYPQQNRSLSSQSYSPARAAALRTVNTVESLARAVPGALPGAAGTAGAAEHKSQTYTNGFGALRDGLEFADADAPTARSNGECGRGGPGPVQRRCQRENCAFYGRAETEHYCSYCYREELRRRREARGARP
From the text: as §1

[1] = 500 uM, read-out: percent_inhibition

Structure (SMILES) | inhibition at 500 µM (UniProt Q9BZY9; read-out: KB02_500 uM_percent_inhibition) | percent_inhibition (UniProt Q68DV7; 100 uM) | inhibition at 100 µM (UniProt Q68DV7; 100 uM, read-out: percent_inhibition) | inhibition at 500 µM (UniProt Q68DV7; [1]) | inhibition at 500 µM (UniProt Q6ZN04) | inhibition at 500 µM (UniProt Q8TE49; 500 uM, read-out: KB02_500 uM_percent_inhibition) | inhibition at 500 µM (UniProt Q9BZY9; read-out: KB05_500 uM_percent_inhibition) | percent_inhibition (UniProt Q68DV7; 500 uM) | inhibition at 500 µM (UniProt Q8TE49; 500 uM, read-out: KB05_500 uM_percent_inhibition) | KB03_500 uM_percent_inhibition (UniProt Q9BZY9; 500 uM) | percent inhibition (UniProt Q6ZN04; 500 uM) | KB03_100 uM_percent_inhibition (UniProt Q8TE49; 100 uM) | KB03_500 uM_percent_inhibition (UniProt Q8TE49; 500 uM)
COc1ccc2c(c1)CCCN2C(=O)CCl [KB02] | 68% | 21% | 13% | 41% | 51% | 28% | – | – | – | – | – | – | –
C=CC(=O)N(c1ccccc1)c1ccc(Br)cc1 [KB05] | – | – | – | 42% | 51% | – | 71% | 40% | 23% | – | – | – | –
O=C(CCl)Nc1cc(C(F)(F)F)cc(C(F)(F)F)c1 [KBO3] | – | 7% | – | – | – | – | – | – | – | 48% | 28% | 52% | 56%
